# Legend:
# hMCH-1R = target: T1, hMCH-1R (Homo sapiens, UniProt Q99705); assay: MCH-1 receptor binding test (125I-MCH binding to membranes of hMCH-1R transfected CHO/Galpha16 cells); settings: 100 pM 125I-MCH
# T1 construct: expressed in transfected cells
# Method: After the incubation the reaction is filtered using a cell harvester through 0.5% PEI treated fibreglass filters (GF/B, Unifilter Packard). The membrane-bound radioactivity retained on the filter is then determined after the addition of scintillator substance (Packard Microscint 20) in a measuring device (TopCount of Packard). […] The analysis of the concentration binding curve is carried out on the assumption of one receptor binding site.
# [1] = rats, intraventricular administration, compared with control animals; cited from earlier work
# [2] = rats; cited from earlier work
# [3] = long term trials, treated animals; cited from earlier work
# T1 sequence (Q99705 whole entry): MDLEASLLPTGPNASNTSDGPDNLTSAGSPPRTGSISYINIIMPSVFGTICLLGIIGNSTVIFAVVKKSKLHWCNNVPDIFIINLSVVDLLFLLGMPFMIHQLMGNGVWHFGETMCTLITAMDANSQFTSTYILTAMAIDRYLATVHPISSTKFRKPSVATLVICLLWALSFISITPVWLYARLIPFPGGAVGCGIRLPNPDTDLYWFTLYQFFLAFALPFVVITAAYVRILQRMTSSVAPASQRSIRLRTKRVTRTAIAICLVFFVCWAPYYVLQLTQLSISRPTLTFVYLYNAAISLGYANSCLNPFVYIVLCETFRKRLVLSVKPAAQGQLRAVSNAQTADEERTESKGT
smiles,measurement,setting,value
"OCCCN(CCOc1ccc(C#Cc2ccc(-c3ccc(Cl)cc3)cn2)cc1)CC1(O)CC1 [Example 2.20, 1-{[(2-{4-[5-(4-chloro-phenyl)-pyridin-2-ylethynyl]-phenoxy}-ethyl)-(3-hydroxy-propyl)-amino]-methyl}-cyclopropanol]",IC50,hMCH-1R,0.0138 µM
"CSCC[C@@H]1NC(=O)[C@@H](NC(=O)[C@H](CCCNC(=N)N)NC(=O)[C@H](CC(C)C)NC(=O)[C@H](CCSC)NC(=O)[C@H](CC(=O)O)NC(=O)[C@H](Cc2ccccc2)NC(=O)[C@@H](N)CC(=O)O)CSSC[C@@H](C(=O)N[C@@H](Cc2c[nH]c3ccccc23)C(=O)N[C@@H](CCC(N)=O)C(=O)N[C@H](C(=O)O)C(C)C)NC(=O)[C@@H]2CCCN2C(=O)[C@H](CCCNC(=N)N)NC(=O)[C@H](Cc2ccc(O)cc2)NC(=O)[C@H](C(C)C)NC(=O)[C@H](CCCNC(=N)N)NC(=O)CNC(=O)[C@H](CC(C)C)NC1=O [MCH, Melanin-concentrating hormone]",food intake,[1],food intake was increased
COCC1=C(C(=O)OC)[C@H](c2ccc(F)c(F)c2)N(C(=O)NCCCN2CCC(c3cccc(NC(C)=O)c3)CC2)C(=O)N1 [SNAP-7941],effects in behavioural experiments,[2],anxiolytic and antidepressant effects
same,body weight,[3],lose significant amounts of weight
"Cc1cc(C#Cc2ccc(-c3ccc(Cl)cc3)cn2)ccc1OCCN1CC[C@H](O)[C@](C)(O)C1 [Example 1.5, (3R,4S)-1-(2-{4-[5-(4-chloro-phenyl)-pyridin-2-ylethynyl]-2-methyl-phenoxy}-ethyl)-3-methyl-piperidine-3,4-diol]",IC50,hMCH-1R,0.0109 µM
